This note sets out measurements from patent publication US20070128217A1 (priority 2003, published 2007).

For test [1], the system named is control sera (pooled serum of ten healthy LUMC hospital workers; commercial negative donor pooled serum from the Dutch bloodbank). The test is classed as binding, human. Further details: Binding of Control serum LUMC to linear peptides / Binding of Control serum Blood-bank to linear peptides / Binding of Control serum LUMC to looped peptides / Binding of Control Serum Blood-Bank to Looped peptides / Binding of Control serum LUMC to linear peptides of the protein M of SARS-CoV Urbani / Binding of Control serum Blood-bank to linear peptides of the protein M of SARS-CoV Urbani / Binding of Control serum LUMC to looped peptides of the protein M of SARS-CoV Urbani / Binding of Control Serum Blood-Bank to Looped peptides of the protein M of SARS-CoV Urbani: unit not given here.

For test [2], the system named is rabbit serum obtained by immunizing a rabbit with the SARS-CoV strain Frankfurt 1. Format: binding. Details: Binding of a rabbit serum to linear peptides / Binding of a rabbit serum to looped peptides / Rabbit serum linear peptides / Rabbit serum looped peptides / Binding of a rabbit serum to linear peptides of protein N of SARS-CoV Urbani (Rabbit serum linear peptides) / Binding of a rabbit serum to looped/cyclic peptides of protein N of SARS-CoV Urbani (Rabbit serum looped peptides): unit not given here.

In test [3] the test system is antibodies in sera from SARS patients (sera 1a, 1b, 2, 6, 37, 62, London, SARS-yellow, SARS-green). The test is classed as binding, human. Details: Binding of serum 6 to linear peptides of protein X1 of SARS-CoV Urbani / Binding of serum 37 to linear peptides of protein X1 of SARS-CoV Urbani / Binding of serum 6 to looped/cyclic peptide (PEPSCAN-ELISA) / Binding of serum 37 to looped/cyclic peptide (PEPSCAN-ELISA) / Binding of serum 37 to looped/cyclic peptides of protein X1 of SARS-CoV Urbani / Binding of serum 6 to linear peptides of protein X2 / Binding of serum 37 to linear peptides of protein X2 / Binding of serum 37 to looped/cyclic peptides of protein X2 of SARS-CoV Urbani / Binding of serum 6 to linear peptides of protein M of SARS-CoV Urbani / Binding of serum 37 to linear peptides of protein M of SARS-CoV Urbani / Binding of serum 6 to looped/cyclic peptides of protein M of SARS-CoV Urbani / Binding of serum 37 to looped/cyclic peptides of protein M of SARS-CoV Urbani / Binding of serum 6 to linear peptides of protein X3 of SARS-CoV Urbani / Binding of serum 37 to linear peptides of protein X3 of SARS-CoV Urbani / Binding of serum 37 to looped/cyclic peptides of protein X3 of SARS-CoV Urbani / Binding of serum 6 to linear peptides of protein X4 of SARS-CoV Urbani / Binding of serum 37 to linear peptides of protein X4 of SARS-CoV Urbani / Binding of serum 37 to looped/cyclic peptides of protein X4 of SARS-CoV Urbani / Binding of serum 6 to linear peptides of protein X5 of SARS-CoV Urbani / Binding of serum 37 to linear peptides of protein X5 of SARS-CoV Urbani / Binding of serum 37 to looped/cyclic peptides of protein X5 of SARS-CoV Urbani / Binding of serum 6 to linear peptides of protein N of SARS-CoV Urbani / Binding of serum 37 to linear peptides of protein N of SARS-CoV Urbani / Binding of serum 6 to linear peptide (PEPSCAN-ELISA) / Binding of serum 1a to looped/cyclic peptides of protein N of SARS-CoV Urbani / Binding of serum 1b to looped/cyclic peptides of protein N of SARS-CoV Urbani / Binding of serum 2 to looped/cyclic peptides of protein N of SARS-CoV Urbani / Binding of serum 6 to looped/cyclic peptides of protein N of SARS-CoV Urbani / Binding of serum 37 to looped/cyclic peptides of protein N of SARS-CoV Urbani / Binding of serum 62 to looped/cyclic peptides of protein N of SARS-CoV Urbani / Binding of serum London to looped/cyclic peptides of protein N of SARS-CoV Urbani / Binding of serum SARS-green to looped/cyclic peptides of protein N of SARS-CoV Urbani: unit not given here.

Take MACIVGLMWLSYFVA: in test [1], the “Binding of Control Serum Blood-Bank to Looped peptides of the protein M of SARS-CoV Urbani” value is 0.4, the “Binding of Control serum Blood-bank to linear peptides of the protein M of SARS-CoV Urbani” value is listed as 0.5, the “Binding of Control serum LUMC to linear peptides of the protein M of SARS-CoV Urbani” value was 0.5 and the “Binding of Control serum LUMC to looped peptides of the protein M of SARS-CoV Urbani” value is 0.6. In test [2], the “Rabbit serum linear peptides” value was found to be 0.2 and the “Rabbit serum looped peptides” value is on record as 0.0. In test [3], the “Binding of serum 1a to linear peptides of protein M of SARS-CoV Urbani” value was 0.7, the “Binding of serum 1a to looped/cyclic peptides of protein M of SARS-CoV Urbani” value is 0.7, the “Binding of serum 1b to linear peptides of protein M of SARS-CoV Urbani” value was found to be 0.5 and the “Binding of serum 1b to looped/cyclic peptides of protein M of SARS-CoV Urbani” value worked out at 0.4. In test [3], the “Binding of serum 2 to linear peptides of protein M of SARS-CoV Urbani” value came out at 0.4, the “Binding of serum 2 to looped/cyclic peptides of protein M of SARS-CoV Urbani” value came out at 0.4, the “Binding of serum 6 to linear peptides of protein M of SARS-CoV Urbani” value stood at 0.3 and the “Binding of serum 6 to looped/cyclic peptides of protein M of SARS-CoV Urbani” value worked out at 0.5. Moreover, in test [3], the “Binding of serum 37 to linear peptides of protein M of SARS-CoV Urbani” value turned out to be 0.4, the “Binding of serum 37 to looped/cyclic peptides of protein M of SARS-CoV Urbani” value amounted to 0.4, the “Binding of serum 62 to linear peptides of protein M of SARS-CoV Urbani” value is reported as 0.4 and the “Binding of serum 62 to looped/cyclic peptides of protein M of SARS-CoV Urbani” value is on record as 0.5. Also, in test [3], the “Binding of serum London to linear peptides of protein M of SARS-CoV Urbani” value is 0.3, the “Binding of serum London to looped/cyclic peptides of protein M of SARS-CoV Urbani” value was 0.2, the “Binding of serum SARS-green to linear peptides of protein M of SARS-CoV Urbani” value turned out to be 0.3 and the “Binding of serum SARS-green to looped/cyclic peptides of protein M of SARS-CoV Urbani” value was 0.2. In test [3], the “Binding of serum SARS-yellow to linear peptides of protein M of SARS-CoV Urbani” value worked out at 0.2 and the “Binding of serum SARS-yellow to looped/cyclic peptides of protein M of SARS-CoV Urbani” value came to 0.4.
Turning to MAISPKFTTSLSLHK, in test [1], the “Binding of Control Serum Blood-Bank to Looped peptides” value is reported as 0.7, the “Binding of Control serum Blood-bank to linear peptides” value is given as 1.0, the “Binding of Control serum LUMC to linear peptides” value worked out at 0.7 and the “Binding of Control serum LUMC to looped peptides” value is 0.6. For the same sequence, in test [2], the “Binding of a rabbit serum to linear peptides” value was 0.3 and the “Binding of a rabbit serum to looped peptides” value amounted to 0.6. Also, in test [3], the “Binding of serum 1a to linear peptides of protein X2” value amounted to 0.7, the “Binding of serum 1a to looped/cyclic peptides of protein X2 of SARS-CoV Urbani” value turned out to be 0.5, the “Binding of serum 1b to linear peptides of protein X2” value is 0.7 and the “Binding of serum 1b to looped/cyclic peptides of protein X2 of SARS-CoV Urbani” value is on record as 0.5. Further, in test [3], the “Binding of serum 2 to linear peptides of protein X2” value came to 0.7, the “Binding of serum 2 to looped/cyclic peptides of protein X2 of SARS-CoV Urbani” value was 0.4, the “Binding of serum 6 to linear peptides of protein X2” value was found to be 0.6 and the “Binding of serum 6 to looped/cyclic peptides of protein X2 of SARS-CoV Urbani” value was 0.4. For the same sequence, in test [3], the “Binding of serum 37 to linear peptides of protein X2” value is recorded as 0.7, the “Binding of serum 37 to looped/cyclic peptides of protein X2 of SARS-CoV Urbani” value is on record as 0.4, the “Binding of serum 62 to linear peptides of protein X2” value is on record as 0.7 and the “Binding of serum 62 to looped/cyclic peptides of protein X2 of SARS-CoV Urbani” value is 0.6. In test [3], the “Binding of serum London to linear peptides of protein X2” value is 0.5, the “Binding of serum London to looped/cyclic peptides of protein X2 of SARS-CoV Urbani” value is reported as 0.2, the “Binding of serum SARS-green to linear peptides of protein X2” value was found to be 0.5 and the “Binding of serum SARS-green to looped/cyclic peptides of protein X2 of SARS-CoV Urbani” value is given as 0.4. In test [3], the “Binding of serum SARS-yellow to linear peptides of protein X2” value worked out at 0.5 and the “Binding of serum SARS-yellow to looped/cyclic peptides of protein X2 of SARS-CoV Urbani” value stood at 0.5.
In the case of MEAQFLYLYALIYFL, in test [1], the “Binding of Control Serum Blood-Bank to Looped peptides” value is given as 0.4, the “Binding of Control serum Blood-bank to linear peptides” value is 0.2, the “Binding of Control serum LUMC to linear peptides” value is 0.5 and the “Binding of Control serum LUMC to looped peptides” value is on record as 0.5. In test [2], the “Binding of a rabbit serum to linear peptides” value is on record as 0.1 and the “Binding of a rabbit serum to looped peptides” value worked out at 0.5. In addition, in test [3], the “Binding of serum 1a to linear peptides of protein X1 of SARS-CoV Urbani” value was 0.7, the “Binding of serum 1a to looped/cyclic peptide (PEPSCAN-ELISA)” value was determined as 0.5, the “Binding of serum 1b to linear peptides of protein X1 of SARS-CoV Urbani” value worked out at 0.6 and the “Binding of serum 1b to looped/cyclic peptide (PEPSCAN-ELISA)” value is 0.3. For the same sequence, in test [3], the “Binding of serum 2 to linear peptides of protein X1 of SARS-CoV Urbani” value came out at 0.5, the “Binding of serum 2 to looped/cyclic peptide (PEPSCAN-ELISA)” value turned out to be 0.4, the “Binding of serum 6 to linear peptides of protein X1 of SARS-CoV Urbani” value is listed as 0.4 and the “Binding of serum 6 to looped/cyclic peptide (PEPSCAN-ELISA)” value is reported as 0.2. In test [3], the “Binding of serum 37 to linear peptides of protein X1 of SARS-CoV Urbani” value was 0.5, the “Binding of serum 37 to looped/cyclic peptide (PEPSCAN-ELISA)” value was determined as 0.8, the “Binding of serum 62 to linear peptides of protein X1 of SARS-CoV Urbani” value worked out at 0.4 and the “Binding of serum 62 to looped/cyclic peptide (PEPSCAN-ELISA)” value turned out to be 0.5. In test [3], the “Binding of serum London to linear peptides of protein X1 of SARS-CoV Urbani” value is listed as 0.2, the “Binding of serum London to looped/cyclic peptide (PEPSCAN-ELISA)” value is on record as 0.2, the “Binding of serum SARS-green to linear peptides of protein X1 of SARS-CoV Urbani” value is on record as 0.0 and the “Binding of serum SARS-green to looped/cyclic peptide (PEPSCAN-ELISA)” value amounted to 0.2. In test [3], the “Binding of serum SARS-yellow to linear peptides of protein X1 of SARS-CoV Urbani” value was found to be 0.2 and the “Binding of serum SARS-yellow to looped/cyclic peptide (PEPSCAN-ELISA)” value came out at 0.4.
On to MRFFTLGSITAQPVK, for which, in test [1], the “Binding of Control Serum Blood-Bank to Looped peptides” value was found to be 0.2, the “Binding of Control serum Blood-bank to linear peptides” value was found to be 0.4, the “Binding of Control serum LUMC to linear peptides” value was found to be 0.7 and the “Binding of Control serum LUMC to looped peptides” value is listed as 0.4. For the same sequence, in test [2], the “Binding of a rabbit serum to linear peptides” value is listed as 0.4 and the “Binding of a rabbit serum to looped peptides” value is given as 0.2. In addition, in test [3], the “Binding of serum 1a to linear peptides of protein X1 of SARS-CoV Urbani” value worked out at 0.6, the “Binding of serum 1a to looped/cyclic peptide (PEPSCAN-ELISA)” value is reported as 0.3, the “Binding of serum 1b to linear peptides of protein X1 of SARS-CoV Urbani” value is given as 0.4 and the “Binding of serum 1b to looped/cyclic peptide (PEPSCAN-ELISA)” value was determined as 0.1. Also, in test [3], the “Binding of serum 2 to linear peptides of protein X1 of SARS-CoV Urbani” value was 0.4, the “Binding of serum 2 to looped/cyclic peptide (PEPSCAN-ELISA)” value came out at 0.1, the “Binding of serum 6 to linear peptides of protein X1 of SARS-CoV Urbani” value stood at 0.6 and the “Binding of serum 6 to looped/cyclic peptide (PEPSCAN-ELISA)” value worked out at 0.2. Further, in test [3], the “Binding of serum 37 to linear peptides of protein X1 of SARS-CoV Urbani” value turned out to be 0.6, the “Binding of serum 37 to looped/cyclic peptide (PEPSCAN-ELISA)” value was 0.2, the “Binding of serum 62 to linear peptides of protein X1 of SARS-CoV Urbani” value is 0.4 and the “Binding of serum 62 to looped/cyclic peptide (PEPSCAN-ELISA)” value came to 0.3. In test [3], the “Binding of serum London to linear peptides of protein X1 of SARS-CoV Urbani” value stood at 0.5, the “Binding of serum London to looped/cyclic peptide (PEPSCAN-ELISA)” value is on record as 0.2, the “Binding of serum SARS-green to linear peptides of protein X1 of SARS-CoV Urbani” value was 0.2 and the “Binding of serum SARS-green to looped/cyclic peptide (PEPSCAN-ELISA)” value was found to be 0.1. In addition, in test [3], the “Binding of serum SARS-yellow to linear peptides of protein X1 of SARS-CoV Urbani” value was 0.4 and the “Binding of serum SARS-yellow to looped/cyclic peptide (PEPSCAN-ELISA)” value is 0.1.
